Experimental data reported in PubChem BioAssay (NCI).
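GI50 = concentration required for 50% inhibition of growth. TGI denotes the concentration required for complete inhibition of growth.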

Tests used:
Experiment in all cases: DTP human tumour cell line panel, 384-well format
[1] = system: NCI-H23 lung
[2] = system: NCI-H322M lung
[3] = system: NCI-H460 NSCLC
[4] = system: NCI-H522 lung
[5] = system: NCI/ADR-RES ovarian
[6] = system: OVCAR-3 ovarian
[7] = system: OVCAR-4 ovarian
[8] = system: OVCAR-5 ovarian
[9] = system: OVCAR-8 ovarian
[10] = system: PC-3 prostate
[11] = system: RPMI-8226 leukemia
[12] = system: RXF 393 renal
[13] = system: SF-268 CNS
[14] = system: SF-295 CNS
[15] = system: SF-539 CNS
[16] = system: SK-MEL-2 melanoma
[17] = system: SK-MEL-28 melanoma
[18] = system: SK-MEL-5 melanoma
[19] = system: SK-OV-3 ovarian
[20] = system: SN12C renal
[21] = system: SNB-19 CNS
[22] = system: SNB-75 CNS
[23] = system: SR leukemia
[24] = system: SW-620 colon
[25] = system: T-47D breast
[26] = system: TK-10 renal
[27] = system: U251 glioblastoma
[28] = system: UACC-257 melanoma
[29] = system: UACC-62 melanoma
[30] = system: UO-31 renal

C[C@@H]1C[C@H](N)C[C@H](c2ccncc2NC(=O)c2ccc(F)c(-c3c(F)cccc3F)n2)C1
TGI [1]: 27.7 µM | GI50 [2]: 14.4 µM | TGI [2]: 27.5 µM | GI50 [3]: 6.02 µM | TGI [3]: 17.2 µM | GI50 [4]: 12.5 µM | TGI [4]: 25.1 µM | GI50 [5]: 16.7 µM | TGI [5]: 30.6 µM | GI50 [6]: 11.6 µM | TGI [6]: 23.9 µM | GI50 [7]: 17.2 µM | TGI [7]: 31.1 µM | GI50 [8]: 11.7 µM | TGI [8]: 24 µM | GI50 [9]: 14.3 µM | TGI [9]: 27.5 µM | GI50 [10]: 4.76 µM | TGI [10]: 17.3 µM | GI50 [11]: 0.0942 µM | TGI [11]: 0.674 µM | GI50 [12]: 3.18 µM | TGI [12]: 11.9 µM | GI50 [13]: 5.86 µM | TGI [13]: 15.9 µM | GI50 [14]: 16.9 µM | TGI [14]: 30.6 µM | GI50 [15]: 7.93 µM | TGI [15]: 20.8 µM | GI50 [16]: 13.4 µM | TGI [16]: 26.2 µM | GI50 [17]: 5.54 µM | TGI [17]: 10.8 µM | GI50 [18]: 1.74 µM | TGI [18]: 4.28 µM | GI50 [19]: 14.3 µM | TGI [19]: 27.4 µM | GI50 [20]: 14.4 µM | TGI [20]: 27.6 µM | GI50 [21]: 15.8 µM | TGI [21]: 29.3 µM | GI50 [22]: 7.54 µM | TGI [22]: 21.2 µM | GI50 [23]: 1.76 µM | TGI [23]: 3.56 µM | GI50 [24]: 14.3 µM | TGI [24]: 27.4 µM | GI50 [25]: 4.76 µM | TGI [25]: 17.7 µM | GI50 [26]: 12.5 µM | TGI [26]: 25.1 µM | GI50 [27]: 10.5 µM | TGI [27]: 22.4 µM | GI50 [28]: 1.65 µM | TGI [28]: 3.03 µM | GI50 [29]: 8.71 µM | TGI [29]: 22 µM | GI50 [30]: 13.5 µM | TGI [30]: 26.4 µM
